Results on two compounds are retold here after patent publication US20060166934A1, “Composition comprising phytosphingosine derivatives for apoptosis induction” (Tae-Yoon Kim, priority 2002, published 2006).

Read-outs that look alike come from different tables or passages of the source.

The nature of series [1]: MTT assay, cytotoxicity in human skin cancer cell line. Type of series: cell-based. The settings on record: human, Cell viability. Summed up:
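A431 cells were seeded in serum-free medium and, about 3 h later, treated 24 h with phytosphingosine derivatives at final 1–100 μM (DMSO vehicle). MTT (2 mg/ml) was then added for 4 h, and the formazan was dissolved in DMSO and read at 540 nm for viability. C2-ceramide served as comparator.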
For orientation: Formazan colour is commonly taken as a measure of viable cells.

A short description of series [2]: MTT assay, cytotoxicity in HUVEC. Type of series: cell-based, human. The settings on record: human. Summed up:
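Primary HUVEC cultured from human umbilical vein; cells in serum-free medium were exposed to phytosphingosine derivatives at final 1–100 μM for 24 h. Viability by MTT (2 mg/ml, 4 h), formazan dissolved in DMSO and read at O.D. 540 nm; C2-ceramide run for comparison.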

The nature of series [3]: MTT assay, combined treatment with UVB irradiation. The series is classed as cell-based, human. The settings on record: human, HaCaT cells, HaCaT, read-out: Cell viability. An outline of the steps: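 HaCaT cells in PBS irradiated with 200 J/m^2 UVB, then returned to DMEM and treated with test compounds for 24 h. Viability by MTT (2 mg/ml, 4 h), formazan dissolved in DMSO and read at 540 nm.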

Series [4] concerns p53. The experiment in a line: Immunoblot analysis of p53. Type of series: cell-based, human. The settings on record: 30 μM, FIG. 12. The protocol:
(§1) In the confirmation of apoptosis-related proteins, the immunoblot analysis is performed in order to look into the effects of the compositions of the present invention on the expression of caspase-3, p53, and Chk1 proteins related to the induction of apoptosis. HaCaT cells are cultured on a 100-mm dish and collected at the indicative time. The proteins are extracted by adding 500 μl of RIPA lysis buffer (1% Nonidet P-40, 1% sodium deoxycholate, 0.1% SDS, […], 0.01 M sodium phosphate, pH 7.2, 2 mM EDTA, 50 mM sodium fluoride and 0.2 mM sodium vanadate), and the concentration is measured by using the Bradford method. 1 Extracted proteins is electrophoresed on 12% polyacrylamide gel, and they are transferred to the nitrocellulose membrane. The membrane blocked with 5% non-fat milk is reacted with the primary antibodies (caspase-3, p53, and Chk1), washed, and reacted with the secondary HRP-conjugated antibody. The intensity of proteins is analyzed by using the ECL kit.
For orientation: A western blot detects proteins with antibodies after separation by electrophoresis.

For series [5], the system named is HaCaT cells. Description: Mitosis by immunofluorescence (β-tubulin, DAPI). Type of series: cell-based, human. The settings on record: 30 μM, 24 hours versus 12 hours, FIG. 9. On the procedure: Next, the cell cycle is observed according to the immunofluorescence method. In order to look into from which step among G2/M phase the induction of apoptosis by TAPS is induced, mitosis is observed by using β-tubulin. HaCaT cells are cultured on a dish with a cover slip and treated with TAPS (30 μM). The cells are washed with PBS at each time interval, fixed with 5% paraformaldehyde for 15 minutes, and reacted with β-tubulin antibody (1:100) for 1 hour. They were washed with PBS and reacted with Cy3-conjugated anti-mouse IgG secondarily. For DNA staining, 0.3 μg/ml of DAPI (Sigma) is added to the cells, which are observed by using a fluorescent microscope.

The subject of series [6] is Chk1. Description: Immunoblot analysis of Chk1. The series is classed as cell-based, human. Particulars: 30 μM, FIGS. 12 and 13. The protocol:
as §1

Series [7] deals with apoptosis-related genes. Description: Apoptosis array kit, gene expression. Type of series: cell-based. Particulars: 30 μM, 24 hours, FIG. 10. The protocol:
Firstly, in order to look into the genes involved in apoptosis induced by the compositions of the present invention, TAPS is treated at the dose of 30 μM for 24 hours, from which mRNA is isolated. Then it is observed by using an apoptosis array kit.
The labeled cDNA is synthesized by using apoptosis-specific primers offered by Human Apoptosis Expression Assay (R&D System, Minneapolis, Minn.), which is used for a probe in incubation with 2 μg of the total RNA at 65° C. overnight. It is then washed with Washing Solution I (0.5×SSPE, 1% (w/v) SDA) three times at a room temperature and with Washing Solution II ([…]) for 1 hour at 65° C. The washed membranes are exposed to X-ray films at […], and developed.

For `CCCCCCCCCCCCCC[C@@H](O)[C@@H](O)[C@H](CO)NC(C)=O` [NAPS, N-acetyl phytosphingosine], the viability (usually a read-out of living cells in per cent, often relative to untreated cells) at 24 h, 3 µM in series [1] came out at 100 ± 10.2%; in series [3] (3 μM + UVB 200 J/m^2, 24 hours), 17 ± 1.6%; in series [3] (3 μM, no UVB, 24 hours), 117 ± 9.7%. Further, the viability at 24 h, 10 µM was found to be 75 ± 6.9% in series [1]; 1 ± 0.1% in series [3] (10 μM + UVB 200 J/m^2, 24 hours); 67 ± 12% in series [3] (10 μM, no UVB, 24 hours). Moreover, the results for the viability at 24 h, 30 µM in series [1] and in series [2] were 31 ± 10% and 14 ± 0.6%, respectively. In series [1], the viability at 24 h, 50 µM came to 1 ± 0.2%. Also, in series [2], the viability at 24 h, 3.5 µM came to 66 ± 7.5%. For the same compound, the viability at 24 h, 7 µM in series [2] is 51 ± 10.5%. The viability at 24 h, 15 µM in series [2] stood at 19 ± 3.4%. In addition, the viability at 24 h, 1 µM in series [3] (1 μM + UVB 200 J/m^2, 24 hours) amounted to 27 ± 5.8%; in series [3] (1 μM, no UVB, 24 hours) it was 130 ± 10%. Also, the viability at 24 h, 5 µM in series [3] (5 μM + UVB 200 J/m^2, 24 hours) came out at 11 ± 1.3%; in series [3] (5 μM, no UVB, 24 hours), 110 ± 14%.
tetraacetyl phytosphingosine [TAPS]: in series [4] (at 8-hour), the p53 protein entry is “not changed greatly”. Besides, in series [4] (at 24 hour), the p53 protein entry was “rapid reduction”. The “cells with chromosomes condensed” value in series [5] was “more cells with chromosomes condensed are observed 24 hours after treating with TAPS than 12 hours after”. Besides, the Chk1 protein entry in series [6] (at 8-hour) is recorded as “not changed greatly”. The Chk1 protein entry in series [6] (at 24 hour) is given as “rapid reduction”. In addition, in series [7], the “expression of Bcl-10” value was “increased”, the “expression of COX-2 gene” value was “increased”, the “expression of IL-1β” value is given as “increased” and the “expression of Mcl-1” value is on record as “increased”. In addition, in series [7], the “expression of PIN gene” value was “increased”, the “expression of p21” value is recorded as “increased”, the “expression of p53 gene” value was “decreased” and the expression of survivin entry is recorded as “reduced”.
